# Measurements: patent US20120282224A1, “MARKERS ASSOCIATED WITH RIBAVIRIN-INDUCED ANEMIA” (priority 2009, published 2012)
# What was measured:
# [1] = human, in vivo, 4 weeks
# Source text: In order to identify genetic contributions to treatment response, the inventors carried out a genome-wide association study on genomic samples obtained from the IDEAL study, the design of which was reported in McHutchison et al., J. Viral Hepatol., Vol. 15, No. 7, July 2008, pp. 475-481). Briefly, in the IDEAL study, treatment-naive patients chronically infected with HCV genotype 1 were randomized (1:1:1) to receive one of the following 48-week treatment regimens: peginterferon alfa-2b (PEG2b) at 1.5 mcg/kg/week plus ribavirin (RBV); PEG2b at 1.0 mcg/kg/week plus RBV; or peginterferon alfa-2a (PEG2a) at 180 meg/week+RBV. In the PEG2b regimens, patients weighing 40-65 kg received 800 mg/day RBV; patients weighing more than 65 and up to 85 kg received 1000 mg/day RBV; patients weighing more than 85 and up to 105 kg received 1200 mg/day RBV; and patients weighing more than 105 kg received 1400 mg/day RBV). In the PEG2a regimen patients weighing <75 kg received 1000 mg/day of RBV while patients weighing ≧75 kg received 1200 mg/day of RBV. Hemoglobin values were measured at baseline (before the first dose of treatment), at week 2, 4, 8, 12, and then every 6 weeks up to treatment completion (48 weeks total). Follow-up measures were obtained at 4, 12 and 24 weeks post-treatment. […]
# [2] = test system: erythrocytes; conditions: erythrocytes versus plasma; cited from earlier work
# [3] = taribavirin with PegIntron (peginterferon alfa-2b), clinical trials; cited from earlier work
compound,measurement,setting,value
"NC(=O)c1ncn([C@@H]2O[C@H](CO)[C@@H](O)[C@H]2O)n1 [RBV, 1-[(2R,3R,4S,5R)-3,4-dihydroxy-5-(hydroxymethyl)oxolan-2-yl]-1H-1,2,4-triazole-3-carboxamide]",patients with Hb concentrations <10 g/dL (severe anemia),[1],13%
NC(=O)c1ncn([C@@H]2O[C@H](COP(=O)(O)OP(=O)(O)OP(=O)(O)O)[C@@H](O)[C@H]2O)n1 [RTP],RTP concentration in erythrocytes relative to plasma,[2],60 fold
"N=C(N)c1ncn([C@@H]2O[C@H](CO)[C@@H](O)[C@H]2O)n1 [taribavirin, 1-(β-D-Ribofuranosyl)-1,2,4-triazole-3-carboximide]",anemia compared with patients treated with ribavirin and PegIntron,[3],less anemia
